Laboratory results published in ChEMBL document CHEMBL1150126, “Oxidation products of abietic acid and its methyl ester” (J Nat Prod, 2002).
Converted amounts (≈) assume the structure as drawn.

The compounds below were run on KB (assay: Cytotoxicity against human KB cells). Details: Homo sapiens, KB; read-out: IC50; call rule not given here.
Format: functional, cell-based
For `COC(=O)[C@]1(C)CCC[C@@]2(C)[C@H]1CC=C1C=C(C(C)C)C(=O)C[C@@H]12`, the IC50 was 12.5 µg/mL (≈ 37.8 µM).
`COC(=O)[C@]1(C)CCC[C@]2(C)c3ccc(C(C)C)cc3[C@H](O)C[C@@H]12` showed an IC50 of 5.8 µg/mL (≈ 17.6 µM).
`COC(=O)[C@]1(C)CCC[C@]2(C)c3ccc(C(C)C)cc3C(=O)C[C@@H]12` gave an IC50 of 4.5 µg/mL (≈ 13.7 µM).

Same assay, conditions: kb
With `CC(C)(O)c1ccc2c(c1)[C@H](O)C[C@H]1[C@](C)(C(=O)O)CCC[C@]21C` the IC50 was “Not Active”.
In the case of `COC(=O)[C@]1(C)CCC[C@@]2(C)[C@H]1C[C@@H](O)C1=C[C@@](O)(C(C)C)CC[C@@H]12`, the IC50 is reported as “Not Active”.
In the case of `CCO[C@@]1(C(C)C)C=C2[C@H](O)C[C@@H]3[C@](C)(CCC[C@@]3(C)C(=O)OC)[C@H]2CC1`, the IC50 is reported as “Not Active”.
In the case of `CC(C)C(=O)CC[C@H]1C(C=O)=CC[C@@H]2[C@]1(C)CCC[C@@]2(C)C(=O)O`, the IC50 is reported as “Not Active”.
`COC(=O)[C@]1(C)CCC[C@@]2(C)[C@H]1CC=C1C=C(C(C)C)CC[C@@H]12` [METHYL ABIETATE] was tested, and the IC50 was “Not Active”.
With `CC(C)C1=CC2=CC[C@@H]3[C@](C)(CCC[C@@]3(C)C(=O)O)[C@H]2CC1` [ABIETIC ACID] the IC50 was “Not Active”.
